Drawing on US20150239833A1, “COMPOSITION, SYNTHESIS, AND USE OF NEW ARYLSULFONYL ISONITRILES” (DUQUESNE UNIVERSITY OF THE HOLY GHOST, priority 2014, published 2015), this text covers melting point for eight molecules.

By melting point is commonly meant the temperature of the solid-liquid transition. For `[C-]#[N+]CS(=O)(=O)c1ccccc1` [compound 3a, ((Isocyanomethyl)sulfonyl)benzene], the melting point fell in the range of 89 to 90 °C.

For the molecule `[C-]#[N+]CS(=O)(=O)c1cc(Cl)cc(Cl)c1` [compound 3h, 1,3-dichloro-5-((isocyanomethyl)sulfonyl)benzene], the melting point lay within 82 to 83 °C.

The molecule `[C-]#[N+]CS(=O)(=O)c1ccc2ccccc2c1` [compound 3d, 2-((isocyanomethyl)sulfonyl)naphthalene] yielded a melting point of 104 to 105 °C.

As to `[C-]#[N+]CS(=O)(=O)c1ccc(Cl)cc1` [compound 3f, 1-Chloro-4-((isocyanomethyl)sulfonyl)benzene], the melting point was 109 to 110 °C (dec.).

On to `[C-]#[N+]CS(=O)(=O)c1ccc(OC)c(OC)c1` [compound 3k, 4-((isocyanomethyl)sulfonyl)-1,2-dimethoxybenzene], for which the melting point lay within 101 to 102 °C.

In the case of `[C-]#[N+]CS(=O)(=O)c1ccc(C)cc1` [compound 3b, 1-((isocyanomethyl)sulfonyl)-4-methylbenzene], the melting point is 112 to 113 °C.

For `[C-]#[N+]CS(=O)(=O)c1c(OC)cccc1OC` [compound 3p, 2-((Isocyanomethyl)sulfonyl)-1,3-dimethoxybenzene], the melting point was 90 to 91 °C.

With `[C-]#[N+]CS(=O)(=O)c1ccc(F)cc1` [compound 3e, 1-fluoro-4-((isocyanomethyl)sulfonyl)benzene], the melting point came to 63 °C.
